In ChEMBL document CHEMBL4483862, “Open-source discovery of chemical leads for next-generation chemoprotective antimalarials” (2018) one finds IC50 and IC90 data, which are given here for 27 compounds.

The subject of this assay is Plasmodium berghei. Nature of the assay: Luciferase/luciferin-expressing antifolate-resistant parasites were used to infect a culture of HepG2 cells that were pre-incubated with compounds. Infected hepatocytes emit light due to the luciferase reaction. Assay results are presented as the percent inhibition of light emission compared to control. […]. In kind it is functional. To be noted: sporozoite; for IC90: read-out: LUCIFERASE INFECTION ASSAY - IC90.

The term IC50 denotes the concentration at which inhibition is half-maximal. By IC90 is commonly meant the concentration needed for an effect of 90%. In the case of `CCOC(=O)Cc1ccc(NC(=O)c2ccc(C(C)(C)C)cc2)cc1`, the IC90 turned out to be 2.02 µM. For the same compound, the IC50 (HEPG2TOX_HILL_SLOPE 1.28, HEPG2TOX_R_SQUARED 0.763, PBLUC_HILL_SLOPE 1.21, PBLUC_R_SQUARED 0.784, read-out: LUCIFERASE INFECTION ASSAY - IC50) came to 0.329 µM.
For `CC(C)(C)c1cc(C(=O)/C(C#N)=N/Nc2ccc(Cl)cc2)no1`, the IC90 came to 4.32 µM. Further, the IC50 (HEPG2TOX_HILL_SLOPE 1.26, HEPG2TOX_R_SQUARED 0.947, PBLUC_HILL_SLOPE 9.91, PBLUC_R_SQUARED 0.6, read-out: LUCIFERASE INFECTION ASSAY - IC50) turned out to be 3.46 µM.
`Cc1cnc(C(=O)NNC(=O)CC23CC4CC(CC(C4)C2)C3)cn1`: the 90% effect concentration (IC90) turned out to be 9.85 µM. Besides, for the setting “HEPG2TOX_HILL_SLOPE 1.28, HEPG2TOX_R_SQUARED 0.86, PBLUC_HILL_SLOPE 19.8, PBLUC_R_SQUARED 0.188, read-out: LUCIFERASE INFECTION ASSAY - IC50”, the IC50 turned out to be 8.81 µM.
In the case of `CC(=O)O/N=C1/CCn2c1c(C)c1ccccc12`, the IC90 amounted to 5.74 µM. Besides, for the setting “HEPG2TOX_HILL_SLOPE 1.28, HEPG2TOX_R_SQUARED 0.99, PBLUC_HILL_SLOPE 11.8, PBLUC_R_SQUARED 0.596, read-out: LUCIFERASE INFECTION ASSAY - IC50”, the IC50 amounted to 4.77 µM.
Regarding `COc1ccc(-c2csc(NC(=O)CN3CCN(c4ncnc5c4cnn5C)CC3)n2)cc1`, the IC90 stood at 3.88 µM. Further, the IC50 (HEPG2TOX_HILL_SLOPE 1.28, 1.59, HEPG2TOX_R_SQUARED 0.849, 0.471, PBLUC_HILL_SLOPE 15.7, 12.8, PBLUC_R_SQUARED 0.495, 0.575, read-out: LUCIFERASE INFECTION ASSAY - IC50) came to 3.31 µM.
For `CC(C)CC(=O)NC(=S)Nc1ccc(S(=O)(=O)N(C)Cc2ccccc2)cc1`, the IC90 worked out at 4.58 µM. The IC50 (HEPG2TOX_HILL_SLOPE 1.27, HEPG2TOX_R_SQUARED 0.987, PBLUC_HILL_SLOPE 1.32, PBLUC_R_SQUARED 0.74, read-out: LUCIFERASE INFECTION ASSAY - IC50) stood at 0.868 µM.
Take `CCCCC(CC)C[n+]1c(C)cc(C=C2Sc3ccccc3N2CC)cc1C` (centres undefined): the IC90 worked out at 0.111 µM. Moreover, the IC50 (HEPG2TOX_HILL_SLOPE 1.26, HEPG2TOX_R_SQUARED 0.976, PBLUC_HILL_SLOPE 1.65, PBLUC_R_SQUARED 0.944, read-out: LUCIFERASE INFECTION ASSAY - IC50) was 0.0293 µM.
On to `Cc1cc(=O)nc(N/N=C/c2ccccc2O)[nH]1`, for which the IC90 is over 13.5 µM. Further, the IC50 (HEPG2TOX_HILL_SLOPE 1.27, HEPG2TOX_R_SQUARED 0.681, PBLUC_HILL_SLOPE 2.52, PBLUC_R_SQUARED 0.516, read-out: LUCIFERASE INFECTION ASSAY - IC50) came to 6.93 µM.
As for `COc1cc(OC)c(NC(=O)CN2CCN(Cc3csc4ccccc34)CC2)cc1Cl`, the IC90 is 9.45 µM. For the same compound, under “HEPG2TOX_HILL_SLOPE 1.28, HEPG2TOX_R_SQUARED 0.885, PBLUC_HILL_SLOPE 11.3, PBLUC_R_SQUARED 0.661, read-out: LUCIFERASE INFECTION ASSAY - IC50”, the IC50 came to 7.79 µM.
`COc1cccc(CN2CCN3C(C(=O)Nc4ccc(F)c(Cl)c4)=COC3=NC2=O)c1`: the IC90 is over 10 µM. Also, the IC50 (HEPG2TOX_HILL_SLOPE 1.28, HEPG2TOX_R_SQUARED 0.654, PBLUC_HILL_SLOPE 1.61, PBLUC_R_SQUARED 0.572, read-out: LUCIFERASE INFECTION ASSAY - IC50) came out at 3.18 µM.
Take `Nc1ncc(-c2cccc(OC(F)(F)F)c2)cc1-c1cccnc1`: the IC90 was over 9.96 µM. In addition, the half-inhibitory concentration (IC50) (HEPG2TOX_HILL_SLOPE 1.26, HEPG2TOX_R_SQUARED 0.924, PBLUC_HILL_SLOPE 2.1, PBLUC_R_SQUARED 0.295, read-out: LUCIFERASE INFECTION ASSAY - IC50) stood at 5.18 µM.
Consider `COc1cc(C)c(CN2CCC(c3nc4ccccc4s3)CC2)cc1OC`, for which the IC90 came to 5.49 µM. For the same compound, the IC50 (HEPG2TOX_HILL_SLOPE 1.28, HEPG2TOX_R_SQUARED 0.688, PBLUC_HILL_SLOPE 2.8, PBLUC_R_SQUARED 0.756, read-out: LUCIFERASE INFECTION ASSAY - IC50) amounted to 2.5 µM.
As for `Cc1cc(C(=O)NNC(=O)c2c(C)nc3ccccn23)c2nc3n(c2n1)CCCCC3`, the IC90 worked out at 0.662 µM. Moreover, where the note is “HEPG2TOX_HILL_SLOPE 1.28, HEPG2TOX_R_SQUARED 0.815, PBLUC_HILL_SLOPE 3.27, PBLUC_R_SQUARED 0.895, read-out: LUCIFERASE INFECTION ASSAY - IC50”, the IC50 came to 0.338 µM.
Consider `Cc1cc(C(=O)COc2ccc(C(N)=O)cc2)c(C)n1-c1ccc2c(c1)OCO2`, for which the concentration for an effect of 90% (IC90) worked out at 5.43 µM. Moreover, for the setting “HEPG2TOX_HILL_SLOPE 1.28, HEPG2TOX_R_SQUARED 0.792, PBLUC_HILL_SLOPE 4.73, PBLUC_R_SQUARED 0.266, read-out: LUCIFERASE INFECTION ASSAY - IC50”, the IC50 was found to be 3.41 µM.
Take `Cc1ccc(Nc2nccc(C(F)(F)F)n2)cc1S(=O)(=O)N(C)C`: the IC90 is over 10 µM. The IC50 (HEPG2TOX_HILL_SLOPE 1.28, HEPG2TOX_R_SQUARED 0.583, PBLUC_HILL_SLOPE 1.84, 1.48, PBLUC_R_SQUARED 0.674, 0.430, read-out: LUCIFERASE INFECTION ASSAY - IC50) stood at 4.96 µM.
In the case of `COc1ccc2c(-c3sc(Nc4ccc(C(C)C)cc4)c(-c4nc5ccccc5s4)c3N)cc(=O)oc2c1`, the IC90 amounted to 2.94 µM. Also, the IC50 (HEPG2TOX_HILL_SLOPE 1.27, HEPG2TOX_R_SQUARED 0.95, PBLUC_HILL_SLOPE 4.32, PBLUC_R_SQUARED 0.419, read-out: LUCIFERASE INFECTION ASSAY - IC50) was 1.76 µM.
As for `CC(C)c1ccc(/C=C/c2ccc(=O)[nH]n2)cc1`, the concentration for an effect of 90% (IC90) is 0.563 µM. Also, the IC50 (HEPG2TOX_HILL_SLOPE 1.26, HEPG2TOX_R_SQUARED 0.973, PBLUC_HILL_SLOPE 20.6, PBLUC_R_SQUARED 0.746, read-out: LUCIFERASE INFECTION ASSAY - IC50) was 0.506 µM.
As for `Nc1nc2ccc(C(=O)N3CCN(C/C=C/c4ccccc4)CC3)cc2s1`, the IC90 is over 10 µM. Besides, the IC50 (HEPG2TOX_HILL_SLOPE 1.29, HEPG2TOX_R_SQUARED 0.665, PBLUC_HILL_SLOPE 22.8, PBLUC_R_SQUARED 0.0313, read-out: LUCIFERASE INFECTION ASSAY - IC50) is over 10 µM.
Regarding `COc1ccc(-c2nnc(SC(C)C(=O)NCCC3=CCCCC3)[nH]2)cc1` (centres undefined), the IC90 is 0.379 µM. In addition, under “HEPG2TOX_HILL_SLOPE 1.28, HEPG2TOX_R_SQUARED 0.906, PBLUC_HILL_SLOPE 22.1, PBLUC_R_SQUARED 0.622, read-out: LUCIFERASE INFECTION ASSAY - IC50”, the IC50 was 0.343 µM.
With `CCOC(=O)c1c(C)nn(-c2ncccc2NC(=O)Nc2cccc(Cl)c2Cl)c1C`, the IC90 is over 7.36 µM. The IC50 (HEPG2TOX_HILL_SLOPE 1.28, HEPG2TOX_R_SQUARED 0.665, PBLUC_HILL_SLOPE 11.5, PBLUC_R_SQUARED 0.0917, read-out: LUCIFERASE INFECTION ASSAY - IC50) was 6.84 µM.
As to `Cc1ccc2c(c1)nc1n2CN(CCN2CCOCC2)CN1Cc1ccccc1`, the IC90 came out at 1.1 µM. Further, the IC50 (HEPG2TOX_HILL_SLOPE 1.27, HEPG2TOX_R_SQUARED 0.847, PBLUC_HILL_SLOPE 11.9, PBLUC_R_SQUARED 0.472, read-out: LUCIFERASE INFECTION ASSAY - IC50) came to 0.911 µM.
Take `CCOC(=O)c1sc(N)c(C#N)c1CSc1nnc(Nc2ccc(CC)cc2)s1`: the IC90 is 5.14 µM. Further, the 50% inhibitory concentration (IC50) (HEPG2TOX_HILL_SLOPE 1.26, HEPG2TOX_R_SQUARED 0.992, PBLUC_HILL_SLOPE 3.19, PBLUC_R_SQUARED 0.556, read-out: LUCIFERASE INFECTION ASSAY - IC50) is 2.58 µM.
As for `O=C(NCCCn1cnc2ccccc21)c1ccc(Oc2ccc(F)cc2)cc1`, the IC90 is over 10 µM. Besides, where the note is “HEPG2TOX_HILL_SLOPE 1.27, HEPG2TOX_R_SQUARED 0.899, PBLUC_HILL_SLOPE 1.4, PBLUC_R_SQUARED 0.524, read-out: LUCIFERASE INFECTION ASSAY - IC50”, the IC50 came out at 5.3 µM.
For `NC(=O)c1ccsc1NC(=O)CSc1ncc(-c2ccccc2)n1-c1ccccc1`, the IC90 is 3.1 µM. For the same compound, for the setting “HEPG2TOX_HILL_SLOPE 1.27, HEPG2TOX_R_SQUARED 0.954, PBLUC_HILL_SLOPE 1.14, PBLUC_R_SQUARED 0.72, read-out: LUCIFERASE INFECTION ASSAY - IC50”, the IC50 came out at 0.447 µM.
In the case of `N#CCCNS(=O)(=O)c1cccc(C(=O)Nc2ccc(Nc3ccccc3)cc2)c1`, the 90% effect concentration (IC90) came out at 4.83 µM. Further, the IC50 (HEPG2TOX_HILL_SLOPE 1.27, HEPG2TOX_R_SQUARED 0.641, PBLUC_HILL_SLOPE 2.13, PBLUC_R_SQUARED 0.388, read-out: LUCIFERASE INFECTION ASSAY - IC50) stood at 1.72 µM.
As to `O=C(Cc1ccc(O)cc1)N1CCc2nc(NCc3cccc(Oc4ccccc4)c3)ncc2C1`, the IC90 is 4.97 µM. Also, under “HEPG2TOX_HILL_SLOPE 1.26, HEPG2TOX_R_SQUARED 0.949, PBLUC_HILL_SLOPE 2.67, PBLUC_R_SQUARED 0.466, read-out: LUCIFERASE INFECTION ASSAY - IC50”, the IC50 was 2.18 µM.
As to `COc1ccc(/C(C#N)=C/c2ccccc2OC)cc1`, the IC90 was 2.26 µM. For the same compound, where the note is “HEPG2TOX_HILL_SLOPE 1.28, HEPG2TOX_R_SQUARED 0.968, PBLUC_HILL_SLOPE 1.65, PBLUC_R_SQUARED 0.898, read-out: LUCIFERASE INFECTION ASSAY - IC50”, the IC50 was 0.597 µM.
